Key:
giant foxtail = experiment: Test B pre/postemergence giant foxtail; format: in vivo, Setaria faberii
Summary of the method: (§1)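 Herbicidal effect was estimated by eye on a ten-point control scale after plants spent twelve to sixteen days in a greenhouse following soil or foliar treatment. Foliar sprays targeted plants at one to four leaves; all doses were formulated in a non-phytotoxic solvent with surfactant.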

cocklebur = experiment: Test B pre/postemergence cocklebur; format: in vivo, Xanthium strumarium
Summary of the method: as §1

duck salad = experiment: Test B flood test duck salad; format: in vivo, Heteranthera limosa
Summary of the method: (§2)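 Flood test on plants grown to the 2-leaf stage; treated plants kept in greenhouse twelve to sixteen days, then visually rated against controls on a 0 (no effect) to 10 (complete control) scale.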

smallflower flatsedge = experiment: Test B flood test smallflower flatsedge; format: in vivo, Cyperus difformis
Summary of the method: as §2

purple nutsedge = experiment: Test B pre/postemergence purple nutsedge; format: in vivo, Cyperus rotundus
Summary of the method: as §1

wild oat = experiment: Test B pre/postemergence wild oat; format: in vivo, Avena fatua
Summary of the method: as §1

bamyardgrass = experiment: Test B flood test barnyardgrass; format: in vivo, Echinochloa crus-galli
Summary of the method: as §2

rice = experiment: Test B flood test rice; format: in vivo, Oryza sativa
Summary of the method: as §2

bedstraw = experiment: Test B pre/postemergence bedstraw; format: in vivo, Galium aparine
Summary of the method: as §1

crabgrass = experiment: Test B pre/postemergence crabgrass; format: in vivo, Digitaria sanguinalis
Summary of the method: as §1

sugar beet = experiment: Test B pre/postemergence sugar beet; format: in vivo, Beta vulgaris
Summary of the method: as §1

surinam grass = experiment: Test B pre/postemergence surinam grass; format: in vivo, Brachiaria decumbens
Summary of the method: as §1

blackgrass = experiment: Test B pre/postemergence blackgrass; format: in vivo, Alopecurus myosuroides
Summary of the method: as §1

pigweed = experiment: Test B pre/postemergence pigweed; format: in vivo, Amaranthus retroflexus
Summary of the method: as §1

morningglory = experiment: Test B pre/postemergence morningglory; format: in vivo, Ipomoea hederacea
Summary of the method: as §1

soybean = experiment: Test B pre/postemergence soybean; format: in vivo, Glycine max
Summary of the method: as §1

rape = experiment: Test B pre/postemergence rape; format: in vivo, Brassica napus
Summary of the method: as §1

corn = experiment: Test B pre/postemergence corn; format: in vivo, Zea mays
Summary of the method: as §1

wheat = experiment: Test B pre/postemergence wheat; format: in vivo, Triticum aestivum
Summary of the method: as §1

velvetleaf = experiment: Test B pre/postemergence velvetleaf; format: in vivo, Abutilon theophrasti
Summary of the method: as §1

[1] = Preemergence, Rate 62 g/ha, scale of 0 to 10 where 0 is no effect and 10 is complete control
[2] = Preemergence, Rate 250 g/ha, scale of 0 to 10 where 0 is no effect and 10 is complete control
[3] = Preemergence, Rate 500 g/ha, scale of 0 to 10 where 0 is no effect and 10 is complete control
[4] = Rate 125 g/ha, Preemergence, scale of 0 to 10 where 0 is no effect and 10 is complete control
[5] = Rate 500 g/ha, Postemergence, scale 0 to 10, 0 no effect, 10 complete control
[6] = Rate 62 g/ha, Postemergence, scale of 0 to 10 where 0 is no effect and 10 is complete control
[7] = Rate 125 g/ha, Postemergence, scale 0 to 10
[8] = Rate 62 g/ha, headed Pre-emergence (flood test species), scale 0 to 10 (0 no effect, 10 complete control)
[9] = Rate 125 g/ha, Pre-emergence, flood test species, scale 0 to 10 where 0 is no effect and 10 is complete control
[10] = Rate 250 g/ha, Pre-emergence, flood-test species, scale 0 to 10, 0 is no effect, 10 is complete control
[11] = Rate 500 g/ha, Pre-emergence, flood test species, scale 0 to 10 (0 no effect, 10 complete control)

CC(C)N(C(=O)n1oc(=O)n(CC(=O)OC(C)(C)C)c1=O)c1ccc(F)cc1 [Compound 265]
3: Plant response rating (0 to 10; 0 is no effect, 10 is complete control), Bedstraw (bedstraw; Rate 250 g/ha, Postemergence) | Crabgrass plant response rating (crabgrass; [5]) | Sugarbeets plant response rating (sugar beet; [5]) | Plant response rating (0 to 10; 0 is no effect, 10 is complete control), Redroot pigweed (pigweed; Rate 250 g/ha, Postemergence) | Rape plant response rating (rape; [5]) | Velvetleaf plant response rating (velvetleaf; [5])
8: Giant foxtail plant response rating (giant foxtail; [2]) | Giant foxtail plant response rating (giant foxtail; [4]) | Bedstraw plant response rating (bedstraw; [5]) | Morningglory plant response rating (morningglory; [5])
7: Blackgrass plant response rating (blackgrass; [5])
4: Plant response rating, B. signalgrass (surinam grass; [3]) | Blackgrass plant response rating (blackgrass; [6]) | Blackgrass plant response rating (blackgrass; [7]) | Redroot pigweed plant response rating (pigweed; [5]) | Soybean plant response rating (soybean; [5])
6: Giant foxtail plant response rating (giant foxtail; [1]) | Plant response rating, Crabgrass (crabgrass; [3]) | Plant response rating (0 to 10; 0 is no effect, 10 is complete control), Morningglory (morningglory; Rate 250 g/ha, Postemergence)
10: Plant response rating, Giant foxtail (giant foxtail; [3])
2: Plant response rating (0 to 10; 0 is no effect, 10 is complete control), Giant foxtail (giant foxtail; Rate 250 g/ha, Postemergence) | Giant foxtail plant response rating (giant foxtail; [5]) | Wild oats plant response rating (wild oat; [2]) | Bedstraw plant response rating (bedstraw; [7]) | Crabgrass plant response rating (crabgrass; [2]) | Crabgrass plant response rating (crabgrass; [4]) | Plant response rating (0 to 10; 0 is no effect, 10 is complete control), Crabgrass (crabgrass; Rate 250 g/ha, Postemergence)
5: Plant response rating, Wild oats (wild oat; [3]) | Plant response rating (0 to 10; 0 is no effect, 10 is complete control), Blackgrass (blackgrass; Rate 250 g/ha, Postemergence)
1: Crabgrass plant response rating (crabgrass; [1]) | Plant response rating (0 to 10; 0 is no effect, 10 is complete control), Rape (rape; Rate 250 g/ha, Postemergence) | Plant response rating, Wheat (wheat; [3])
0: Cocklebur plant response rating (cocklebur; [1]) | Cocklebur plant response rating (cocklebur; [2]) | Cocklebur plant response rating (cocklebur; [6]) | Cocklebur plant response rating (cocklebur; [7]) | Cocklebur plant response rating (cocklebur; [4]) | Plant response rating (0 to 10; 0 is no effect, 10 is complete control), Cocklebur (cocklebur; Rate 250 g/ha, Postemergence) | Cocklebur plant response rating (cocklebur; [5]) | Ducksalad plant response rating (duck salad; [8]) | Ducksalad plant response rating (duck salad; [9]) | Ducksalad plant response rating (duck salad; [10]) | Ducksalad plant response rating (duck salad; [11]) | S. Flatsedge plant response rating (smallflower flatsedge; [8]) | S. Flatsedge plant response rating (smallflower flatsedge; [9]) | S. Flatsedge plant response rating (smallflower flatsedge; [10]) | S. Flatsedge plant response rating (smallflower flatsedge; [11]) | Nutsedge plant response rating (purple nutsedge; [1]) | Nutsedge plant response rating (purple nutsedge; [2]) | Plant response rating, Nutsedge (purple nutsedge; [3]) | Plant response rating (0 to 10; 0 is no effect, 10 is complete control), Nutsedge (purple nutsedge; Rate 250 g/ha, Postemergence) | Nutsedge plant response rating (purple nutsedge; [5]) | Wild oats plant response rating (wild oat; [1]) | Wild oats plant response rating (wild oat; [4]) | Wild oats plant response rating (wild oat; [5]) | Barnyardgrass plant response rating (bamyardgrass; [8]) | Barnyardgrass plant response rating (bamyardgrass; [9]) | Barnyardgrass plant response rating (bamyardgrass; [10]) | Barnyardgrass plant response rating (bamyardgrass; [11]) | Rice plant response rating (rice; [8]) | Rice plant response rating (rice; [9]) | Rice plant response rating (rice; [10]) | Rice plant response rating (rice; [11]) | Bedstraw plant response rating (bedstraw; [1]) | Bedstraw plant response rating (bedstraw; [2]) | Plant response rating, Bedstraw (bedstraw; [3]) | Bedstraw plant response rating (bedstraw; [6]) | Bedstraw plant response rating (bedstraw; [4]) | Sugarbeets plant response rating (sugar beet; [1]) | Sugarbeets plant response rating (sugar beet; [2]) | Plant response rating, Sugarbeets (sugar beet; [3]) | Sugarbeets plant response rating (sugar beet; [4]) | B. signalgrass plant response rating (surinam grass; [1]) | B. signalgrass plant response rating (surinam grass; [2]) | B. signalgrass plant response rating (surinam grass; [6]) | B. signalgrass plant response rating (surinam grass; Rate 125 g/ha, Postemergence, scale 0 (no effect) to 10 (complete control)) | B. signalgrass plant response rating (surinam grass; [4]) | Plant response rating (0 to 10; 0 is no effect, 10 is complete control), B. signalgrass (surinam grass; Rate 250 g/ha, Postemergence) | B. signalgrass plant response rating (surinam grass; [5]) | Blackgrass plant response rating (blackgrass; [1]) | Blackgrass plant response rating (blackgrass; [2]) | Redroot pigweed plant response rating (pigweed; [1]) | Redroot pigweed plant response rating (pigweed; [2]) | Plant response rating, Redroot pigweed (pigweed; [3]) | Redroot pigweed plant response rating (pigweed; [4]) | Morningglory plant response rating (morningglory; [1]) | Morningglory plant response rating (morningglory; [2]) | Plant response rating, Morningglory (morningglory; [3]) | Morningglory plant response rating (morningglory; [4]) | Soybean plant response rating (soybean; [1]) | Soybean plant response rating (soybean; [2]) | Plant response rating, Soybean (soybean; [3]) | Soybean plant response rating (soybean; [4]) | Rape plant response rating (rape; [1]) | Rape plant response rating (rape; [2]) | Plant response rating, Rape (rape; [3]) | Rape plant response rating (rape; [4]) | Corn plant response rating (corn; [1]) | Corn plant response rating (corn; [2]) | Plant response rating, Corn (corn; [3]) | Corn plant response rating (corn; [6]) | Corn plant response rating (corn; [7]) | Corn plant response rating (corn; [4]) | Plant response rating (0 to 10; 0 is no effect, 10 is complete control), Corn (corn; Rate 250 g/ha, Postemergence) | Corn plant response rating (corn; [5]) | Wheat plant response rating (wheat; [1]) | Wheat plant response rating (wheat; [2]) | Wheat plant response rating (wheat; [4]) | Wheat plant response rating (wheat; [5]) | Velvetleaf plant response rating (velvetleaf; [1]) | Velvetleaf plant response rating (velvetleaf; [2]) | Plant response rating, Velvetleaf (velvetleaf; [3]) | Velvetleaf plant response rating (velvetleaf; [4])
